Our source for the melting point values is patent publication US7495018B2, “Substituted 1,3-thiazole compounds, their production and use” (Takeda Pharmaceutical Company Limited, priority 2000, dated 2009).

In the case of `CSCCc1nc(-c2cccc(Cl)c2)c(-c2ccnc(N)c2)s1`, the melting point (as a rule, the temperature of the solid-liquid transition) is 96 to 97 °C.
As for `CSCc1nc(-c2cccc(Cl)c2)c(-c2ccnc(N)c2)s1`, the figure is 111 to 112 °C; as for `CC(F)(F)c1nc(-c2cccc(Cl)c2)c(-c2ccnc(N)c2)s1`, 131 to 132 °C; as for `CCC(=O)Nc1cc(-c2sc(C3CCNCC3)nc2-c2cccc(Cl)c2)ccn1.Cl.Cl`, 202 to 203 °C.
For the molecule `Cc1cccc(-c2nc(NC(=O)NCCCl)sc2-c2ccnc(C)c2)c1`, the melting point was in the range of 149 to 151 °C.
Molecule `CCc1nc(-c2cccc(C)c2)c(-c2ccnc(NC(=O)OC(C)(C)C)c2)s1` [Example 3, 5-[2-(tert-butoxycarbonylamino)-4-pyridyl]-2-ethyl-4-(3-methylphenyl)-1,3-thiazole] registered a melting point of 162 to 163 °C.
Take `CCc1nc(-c2ccc(F)cc2)c(-c2ccnc(NC(C)=O)c2)s1` [Example 82-2, N-[4-[2-ethyl-4-(4-fluorophenyl)-1,3-thiazol-5-yl]-2-pyridyl]acetamide]: the melting point fell in the range of 190 to 191 °C.
Regarding `CCc1nc(-c2cccc(C(F)(F)F)c2)c(-c2ccnc(NC(C)=O)c2)s1` [Example 82-3, N-[4-[2-ethyl-4-(3-trifluoromethylphenyl)-1,3-thiazol-5-yl]-2-pyridyl]acetamide], the melting point lay in the range of 146 to 147 °C.
Next, `CCc1nc(-c2ccc(F)c(C)c2)c(-c2ccnc(NC(C)=O)c2)s1` [Example 82-4, N-[4-[2-ethyl-4-(4-fluoro-3-methylphenyl)-1,3-thiazol-5-yl]-2-pyridyl]acetamide]: 142 to 143 °C; `CCc1nc(-c2cccc(F)c2)c(-c2ccnc(NC(C)=O)c2)s1` [Example 82-5, N-[4-[2-ethyl-4-(3-fluorophenyl)-1,3-thiazol-5-yl]-2-pyridyl]acetamide]: 141 to 142 °C.
As to `CCc1nc(-c2ccc(Cl)cc2)c(-c2ccnc(NC(C)=O)c2)s1` [Example 82-6, N-[4-[4-(4-chlorophenyl)-2-ethyl-1,3-thiazol-5-yl]-2-pyridyl]acetamide], the melting point lay within 190 to 191 °C.
Turning to `CCc1cccc(-c2nc(CC)sc2-c2ccnc(NC(C)=O)c2)c1` [Example 82-7, N-[4-[2-ethyl-4-(3-ethylphenyl)-1,3-thiazol-5-yl]-2-pyridyl]acetamide], the melting point was in the range of 112 to 113 °C.
The molecule `CCc1nc(-c2cccc(C(C)C)c2)c(-c2ccnc(NC(C)=O)c2)s1` [Example 82-8, N-[4-[2-ethyl-4-[3-(1-methylethyl)phenyl]-1,3thiazol-5-yl]-2-pyridyl]acetamide] yielded a melting point of 116 to 117 °C.
Molecule `CCCc1cccc(-c2nc(CC)sc2-c2ccnc(NC(C)=O)c2)c1` [Example 82-9, N-[4-[2-ethyl-4-(3-propylphenyl)-1,3-thiazol-5-yl]-2-pyridyl]acetamide] displayed a melting point of 121 to 122 °C.
Next, `CC(=O)Nc1cc(-c2sc(C)nc2-c2cccc(C)c2)ccn1` [Example 82-10, N-[4-[2-methyl-4-(3-methylphenyl)-1,3-thiazol-5-yl]-2-pyridyl]acetamide]: 162 to 163 °C; `CC(=O)Nc1cc(-c2scnc2-c2cccc(C)c2)ccn1` [Example 82-11, N-[4-[4-(3-methylphenyl)-1,3-thiazol-5-yl]-2-pyridyl]acetamide]: 149 to 150 °C; `CSc1ccc(-c2nc(-c3cccc(C)c3)c(-c3ccnc(NC(C)=O)c3)s2)cc1` [Example 82-12, N-[4-[4-(3-methylphenyl)-2-[4-(methylthio)phenyl]-1,3-thiazol-5-yl]-2-pyridyl]acetamide]: 181 to 182 °C.
On to `CCC(=O)Nc1cc(-c2sc(CC)nc2-c2ccccc2)ccn1` [Example 84-1, N-[4-(2-ethyl-4-phenyl-1,3-thiazol-5-yl)-2-pyridyl]propionamide], for which the melting point was in the range of 139 to 140 °C.
As for `CCC(=O)Nc1cc(-c2sc(CC)nc2-c2ccc(F)cc2)ccn1` [Example 84-2, N-[4-[2-ethyl-4-(4-fluorophenyl)-1,3-thiazol-5-yl]-2-pyridyl]propionamide], the figure is 156 to 157 °C; as for `CCC(=O)Nc1cc(-c2sc(CC)nc2-c2cccc(C(F)(F)F)c2)ccn1` [Example 84-3, N-[4-[2-ethyl-4-(3-trifluoromethylphenyl)-1,3-thiazol-5-yl]-2-pyridyl]propionamide], 126 to 127 °C; as for `CCC(=O)Nc1cc(-c2sc(CC)nc2-c2ccc(F)c(C)c2)ccn1` [Example 84-4, N-[4-[2-ethyl-4-(4-fluoro-3-methylphenyl)-1,3-thiazol-5-yl]-2-pyridyl]propionamide], 105 to 107 °C.
`CCC(=O)Nc1cc(-c2sc(CC)nc2-c2cccc(F)c2)ccn1` [Example 84-5, N-[4-[2-ethyl-4-(3-fluorophenyl)-1,3-thiazol-5-yl]-2-pyridyl]propionamide] showed a melting point of 121 to 122 °C.
As for `CCC(=O)Nc1cc(-c2sc(CC)nc2-c2ccc(Cl)cc2)ccn1` [Example 84-6, N-[4-[4-(4-chlorophenyl)-2-ethyl-1,3-thiazol-5-yl]-2-pyridyl]propionamide], the figure is 152 to 153 °C.
Next, `CCC(=O)Nc1cc(-c2sc(CC)nc2-c2cccc(C(C)C)c2)ccn1` [Example 84-7, N-[4-[2-ethyl-4-[3-(1-methylethyl)phenyl]-1,3-thiazol-5-yl]-2-pyridyl]propionamide]: 93 to 94 °C; `CCCc1cccc(-c2nc(CC)sc2-c2ccnc(NC(=O)CC)c2)c1` [Example 84-8, N-[4-[2-ethyl-4-(3-propylphenyl)-1,3-thiazol-5-yl]-2-pyridyl]propionamide]: 124 to 125 °C.
`CCC(=O)Nc1cc(-c2sc(-c3ccc(SC)cc3)nc2-c2cccc(C)c2)ccn1` [Example 84-9, N-[4-[4-(3-methylphenyl)-2-[4-(methylthio)phenyl]-1,3-thiazol-5-yl]-2-pyridyl]propionamide]: the melting point fell in the range of 171 to 172 °C.
In the case of `CCCC(=O)Nc1cc(-c2sc(CC)nc2-c2cccc(Cl)c2)ccn1` [Example 86, N-[4-[4-(3-chlorophenyl)-2-ethyl-1,3-thiazol-5-yl]-2-pyridyl]butyramide], the melting point was 119 to 120 °C.
In turn, `CCCCC(=O)Nc1cc(-c2sc(CC)nc2-c2cccc(C)c2)ccn1` [Example 87-1, N-[4-[2-ethyl-4-(3-methylphenyl)-1,3-thiazol-5-yl]-2-pyridyl]valeramide] had a melting point of 81 to 82 °C.
As for `CCCCCC(=O)Nc1cc(-c2sc(CC)nc2-c2cccc(C)c2)ccn1` [Example 87-2, N-[4-[2-ethyl-4-(3-methylphenyl)-1,3-thiazol-5-yl]-2-pyridyl]hexanamide], the melting point is 84 to 85 °C.
`CCCCC(=O)Nc1cc(-c2sc(CC)nc2-c2cccc(Cl)c2)ccn1` [Example 88-1, N-[4-[4-(3-chlorophenyl)-2-ethyl-1,3-thiazol-5-yl]-2-pyridyl]valeramide]: the melting point fell in the range of 109 to 110 °C.
In turn, `CCCCCC(=O)Nc1cc(-c2sc(CC)nc2-c2cccc(Cl)c2)ccn1` [Example 88-2, N-[4-[4-(3-chlorophenyl)-2-ethyl-1,3-thiazol-5-yl]-2-pyridyl]hexanamide] registered a melting point of 114 to 115 °C.
